According to article PMC4452638, “Synthesis and preclinical evaluation of DOTAGA-conjugated PSMA ligands for functional imaging and endoradiotherapy of prostate cancer” (EJNMMI Research, 2014):
Each block holds one compound with its values, some of them ahead of it.

Experiments:
PSMA = target: T1, PSMA (Homo sapiens, UniProt Q04609); test: Competitive PSMA binding assay on LNCaP cells with ([125I]I-BA)KuE as radioligand; settings: LNCaP cells 150,000/well, ([125I]I-BA)KuE c = 0.2 nM, HBSS (1% BSA), 4°C, 1 h, mean ± SD (n = 3); read-out: IC50 (PSMA affinity)
T1 construct: host or cells: LNCaP human prostate carcinoma cells
T1 sequence (Q04609 whole entry): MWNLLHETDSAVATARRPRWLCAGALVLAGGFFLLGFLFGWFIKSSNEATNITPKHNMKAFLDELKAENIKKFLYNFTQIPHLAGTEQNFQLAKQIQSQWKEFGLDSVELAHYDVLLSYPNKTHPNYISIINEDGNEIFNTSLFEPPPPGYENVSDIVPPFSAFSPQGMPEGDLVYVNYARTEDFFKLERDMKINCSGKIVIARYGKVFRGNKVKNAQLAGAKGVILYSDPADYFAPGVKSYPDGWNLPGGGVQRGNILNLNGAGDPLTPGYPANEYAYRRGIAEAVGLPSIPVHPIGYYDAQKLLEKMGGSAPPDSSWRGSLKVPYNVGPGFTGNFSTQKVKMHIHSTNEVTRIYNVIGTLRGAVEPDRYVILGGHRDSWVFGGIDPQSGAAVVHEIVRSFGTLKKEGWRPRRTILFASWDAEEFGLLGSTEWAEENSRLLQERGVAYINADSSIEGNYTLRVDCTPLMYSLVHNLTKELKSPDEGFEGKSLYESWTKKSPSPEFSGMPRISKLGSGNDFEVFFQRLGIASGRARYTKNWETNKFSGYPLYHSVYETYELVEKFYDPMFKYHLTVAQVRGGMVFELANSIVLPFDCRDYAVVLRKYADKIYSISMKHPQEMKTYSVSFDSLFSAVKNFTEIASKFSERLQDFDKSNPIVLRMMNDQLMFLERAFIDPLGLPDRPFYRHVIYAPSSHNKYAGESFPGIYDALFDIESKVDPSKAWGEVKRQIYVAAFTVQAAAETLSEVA
Procedure: (§1) Cell culture: PSMA^+ LNCaP cells (CLS: 300265) were grown in DMEM/Nutrition Mix F-12 with Glutamax-I (1:1) (Invitrogen, Life Technologies, Darmstadt, Germany) supplemented with 10% FCS. Cultures were maintained at 37°C in a 5% CO2/humidified air atmosphere. One day prior to the experiment, cells were harvested using Trypsin/EDTA (0.05% and 0.02%) in PBS, centrifuged and resuspended with culture medium. For cell counting, a Countesse automated cell counter (Invitrogen, Carlsbad, USA) was used. All in vitro binding and internalization studies were performed using live cells seeded 1 day prior to the experiment. For IC50 determination, 150,000 cells/mL were transferred to 24-well plates (1 mL/well), and for internalization studies, 125,000 cells/mL were transferred into PLL-coated 24-well plates.
Then, 25 μL/well of either HBSS (1% BSA; control) or of solutions containing the respective unlabelled ligand of interest in increasing concentrations (10^-10-10^-4 M in HBSS (1% BSA)) was added, followed by the addition of 25 μL of ([^125I]I-BA)KuE in HBSS (1% BSA). Experiments were carried out in triplicate for each concentration. The final radioligand concentration was 0.2 nM in all binding assays. Cells were incubated on ice for 60 min. Incubation was terminated by the removal of the incubation medium. Cells were thoroughly rinsed with 250 μL of HBSS. The wash medium was combined with the supernatant of the previous step. This fraction represents the amount of free radioligand. Cells were then lysed using 250 μL of 1 N NaOH, the lysate was transferred to vials and combined with 250 μL of HBSS used for rinsing the wells. Quantification of the amount of free and bound activity was performed in a γ-counter.
The PSMA binding affinities were determined in a competitive binding assay using LNCaP human prostate carcinoma cells and the known high affinity PSMA ligand ([^125I]I-BA)KuE [10] (c = 0.2 nM) as the radioligand. The IC50 values for the metal-free PSMA-inhibiting compounds and their respective ^natGa and ^natLu complexes are summarized in Table 1. HBED-CC-Ahx-KuE and [^natGa]HBED-CC-Ahx-KuE [12] were included in this study as reference compounds.

[1] = tested on: PSMA-expressing LNCaP cells; test: Internalization studies / cell binding in LNCaP cells; type: cell-based, human; settings: 37°C, 1 h, 125,000 cells/well, corrected for unspecific binding
Procedure: as §1
Internalization studies: The culture medium was removed, and the cells were washed once with 500 μL DMEM-F12 (5% BSA) before being left to equilibrate in 200 μL DMEM-F12 (5% BSA) at 37°C for a minimum of 15 min. Then, 25 μL (per well) of either DMEM-F12 (5% BSA) or of a 100-μM PMPA solution (blocking) was added, followed by the addition of 25 μL of ^68Ga/^177Lu-labelled PSMA ligand. The final radioligand concentration was 0.2/0.5 nM in all internalization assays. To determine internalization kinetics, cells were then incubated at 37°C for 5, 15, 30 and 60 min, respectively. Experiments were carried out in triplicate for each time point (control and blocking). Incubation was terminated by placing the plate on ice for approximately 1 min and by subsequent removal of the incubation medium. Cells were thoroughly rinsed with 250 μL of PBS. The wash medium was combined with the supernatant of the previous step. This fraction represents the amount of free radioligand. To remove receptor surface bound radioactivity, the cells were then incubated for 10 min with 250 μL of ice cold PMPA solution (10 μM in PBS). After removal of the supernatant, the cells were thoroughly rinsed with another 250 μL of ice cold PBS. Both fractions were combined. The internalized activity was released by incubation with 250 μL of 1 N NaOH, transferred to vials and combined with 250 μL of 1 N NaOH used for rinsing the wells. Quantification of the amount of free, PMPA-releasable and internalized activity was performed in a γ-counter.
The cellular uptake and internalization kinetics of the different ^68Ga- and ^177Lu-labelled PSMA ligands was determined using PSMA-expressing LNCaP cells. In the case of the ^68Ga-labelled compounds, the final peptide concentration in the assays was 0.2 nM. […] All internalization studies were accompanied by reference studies using ([^125I]I-BA)KuE (c = 0.2 nM). This experimental setup allows data normalization and eliminates the influence of cell count and cell viability on absolute cellular tracer uptake. […] Furthermore, to be able to discriminate between total cellular activity (sum of membrane associated and internalized activity) and internalized activity, all incubations were followed by a washing step with 10 μM PMPA at 4°C to remove specifically cell-surface bound radioligand by displacement.

[2] = Determination of lipophilicity (shake flask, n-octanol/PBS); type: physicochemical
Procedure: To a solution of 0.5 to 1 MBq of radiolabelled peptide in 500 μl of phosphate-buffered saline (PBS, pH 7.4), 500 μl of n-octanol was added (n = 6). Vials were vortexed vigorously for 3 min. To achieve quantitative phase separation, the vials were centrifuged at 6,000 g for 5 min in a Biofuge 15 (Heraeus Sepatech, Osterode, Germany). The activity concentrations in 100 μl-samples of both the aqueous and the organic phase were measured in a γ-counter. Both the partition coefficient P(o/w), which is defined as the molar concentration ratio of a single species A between n-octanol and water at equilibrium, and logP(o/w), which is an important parameter used to characterize lipophilicity of a compound, were calculated.
The partition coefficient logP between n-octanol and PBS was determined for the compounds listed in Table 3 using the shake flask method. All compounds are highly hydrophilic, with the DOTAGA compounds being up to one order of magnitude more hydrophilic than the corresponding DOTA analogues. Amongst all compounds tested, [^68Ga]HBED-CC-Ahx-KuE was the most hydrophilic compound.

LNCaP tumour xenograft = test: Biodistribution in LNCaP-tumour-bearing mice; type: in vivo; settings: LNCaP-tumour bearing CD-1 nu/nu mice, 1 h p.i.
Procedure: All animal experiments were conducted in accordance with general animal welfare regulations in Germany (Deutsches Tierschutzgesetz, approval #55.2-1-54-2532-71-13). The prostate cancer cell line LNCaP was suspended 1/1 in serum-free medium and Matrigel (BD Biosciences, Germany) and approximately 10^7 cells in 200 μL were inoculated subcutaneously on the right shoulder of 6 to 8 weeks old CD-1 nu/nu mice (Charles River Laboratories). Tumours were grown for 2 to 4 weeks (males) and 4 to 6 weeks (females) to reach 4 to 8 mm in diameter.
Biodistribution: The ^68Ga-labelled PSMA ligands (approximately 7 to 15 MBq, 0.1 to 0.2 nmol) were injected into the tail vein of isoflurane anesthetized animals. The organ distribution was examined 1 h p.i. and quantified in a γ-counter.
A comparison of the biodistribution of compounds ^68Ga-11, ^68Ga-12 and the reference [^68Ga]HBED-CC-Ahx-KuE in LNCaP-tumour-bearing CD-1 nu/nu mice (1 h p.i.) is shown in Figure 7.

[3] = Stability in human serum (TLC analysis); type: in vitro ADME; settings: 37°C, 48 h
Procedure: (§2) ^177Lu-10 and ^177Lu-11 were incubated in 80 μL of human serum (37°C) and 80 μL 0.4 M DTPA solution (RT), respectively and after 1, 24 and 48 h, the stability was determined by TLC analysis. The ^68Ga-labelled tracers (40 to 45 MBq) were injected into the tail vein of CD-1 nu/nu mice. The animals were sacrificed after 30 min, and urine, blood and kidney samples were taken. The kidney was frozen in liquid nitrogen, homogenized with a ball mill and extracted with 0.2 to 1 mL PBS containing 200 nmol 2-(phosphonomethyl)pentane-1,5-dioic acid (PMPA). The suspension was first centrifuged (15,000 g), and after ultrafiltration, the extracts were analysed by RP-HPLC. The blood samples were centrifuged to separate the plasma from the blood cells. Plasma proteins were removed by precipitation with acetonitrile (10 min, 4°C) and subsequent centrifugation and ultrafiltration. The blood extract was also analysed by RP-HPLC.
(§3) The stability of ^177Lu-10 and ^177Lu-11 was investigated by incubation in human serum for 48 h at 37°C and by DTPA challenge (0.4 M, RT, 48 h) and subsequent TLC analysis. Release of ^177Lu^III from the complexes was not observed under the respective experimental conditions in the examined time frame.

[4] = DTPA challenge (TLC analysis); type: physicochemical; settings: DTPA challenge 0.4 M, RT, 48 h
Procedure: as §2, §3

[5] = n-octanol/PBS pH 7.4, mean ± SD (n = 6)

- IC50 (PSMA): 10.2 ± 1.5 nM
Compound: O=C(O)CC[C@H](NC(=O)N[C@@H](CCCCNC(=O)CCCCCCC(=O)NCCCC[C@H](NC(=O)[C@H](Cc1ccccc1)NC(=O)[C@H](Cc1ccccc1)NC(=O)CCC(C(=O)O)N1CCN(CC(=O)O)CCN(CC(=O)O)CCN(CC(=O)O)CC1)C(=O)O)C(=O)O)C(=O)O (some centres unmarked) [compound 11, DOTAGA-FFK(Sub-KuE)]

- IC50 (PSMA): 13.9 ± 0.4 nM
Compound: O=C(O)CC[C@H](NC(=O)N[C@@H](CCCCNC(=O)CCCCCCC(=O)NCCCC[C@@H](NC(=O)[C@@H](Cc1ccccc1)NC(=O)[C@@H](Cc1ccccc1)NC(=O)CCC(C(=O)O)N1CCN(CC(=O)O)CCN(CC(=O)O)CCN(CC(=O)O)CC1)C(=O)O)C(=O)O)C(=O)O (some centres unmarked) [compound 12, DOTAGA-ffk(Sub-KuE)]

- log P (o/w) [2, 5]: −3.1 ± 0.2
Compound: [^68Ga]DOTA-FFK(Sub-KuE) [^68Ga-10, reference compound]
- Internalization (1 h) in % of ([125I]I-BA)KuE ([1]; 68Ga compounds, c = 0.2 nM): 14.6 ± 0.8%

- log P (o/w) [2, 5]: −4.1 ± 0.1
- Tracer uptake into liver (LNCaP tumour xenograft): 0.5 ± 0.1 % ID/g
- Tracer uptake into lung (LNCaP tumour xenograft): 1.9 ± 0.4 % ID/g
- Tracer uptake into pancreas (LNCaP tumour xenograft): 0.9 ± 0.2 % ID/g
- Tracer uptake into spleen (LNCaP tumour xenograft): 14.7 ± 2.6 % ID/g
- Tumour-to-blood ratio (LNCaP tumour xenograft): 12.5 ± 0.7
- Tumour-to-skeletal muscle ratio (LNCaP tumour xenograft): 16.2 ± 0.1
- Uptake into LNCaP tumour xenograft (LNCaP tumour xenograft): 4.7 ± 0.2 % ID/g
Compound: [^68Ga]HBED-CC-Ahx-KuE [reference compound]
- Internalization (1 h) in % of ([125I]I-BA)KuE ([1]; 68Ga compounds, c = 0.2 nM): 91.1 ± 1.7%

- log P (o/w) [2, 5]: −2.7 ± 0.02
- Release of 177Lu(III) from the complex [3]: not observed
- Release of 177Lu(III) from the complex [4]: not observed
Compound: [^177Lu]DOTA-FFK(Sub-KuE) [^177Lu-10, reference compound]
- Internalization (1 h) in % of ([125I]I-BA)KuE ([1]; 177Lu compounds, c = 0.5 nM): 19.3 ± 0.9%

- IC50 (PSMA): 29.5 ± 6.6 nM
Compound: [^natGa]DOTA-FFK(Sub-KuE) [^natGa-10, reference compound]

- IC50 (PSMA): 6.1 ± 0.8 nM
Compound: [^natGa]HBED-CC-Ahx-KuE [reference compound]

- IC50 (PSMA): 54.7 ± 6.1 nM
Compound: [^natLu]DOTA-FFK(Sub-KuE) [^natLu-10, reference compound]

Further lines, the compound ahead of its results:

Compound: O=C(O)CCc1ccc(O)c(CN(CCN(CC(=O)O)Cc2cc(CCC(=O)NCCCCCC(=O)NCCCC[C@H](NC(=O)N[C@@H](CCC(=O)O)C(=O)O)C(=O)O)ccc2O)CC(=O)O)c1 [HBED-CC-Ahx-KuE, reference compound]
- IC50 (PSMA): 5.7 ± 0.5 nM

Compound: O=C(O)CC[C@H](NC(=O)N[C@@H](CCCCNC(=O)CCCCCCC(=O)NCCCC[C@H](NC(=O)[C@H](Cc1ccccc1)NC(=O)[C@H](Cc1ccccc1)NC(=O)CN1CCN(CC(=O)O)CCN(CC(=O)O)CCN(CC(=O)O)CC1)C(=O)O)C(=O)O)C(=O)O [compound 10, DOTA-FFK(Sub-KuE), reference compound]
- IC50 (PSMA): 13.1 ± 2.3 nM

Compound: [^177Lu]DOTAGA-FFK(Sub-KuE) [^177Lu-11]
- Internalization (1 h) in % of ([125I]I-BA)KuE ([1]; 177Lu compounds, c = 0.5 nM): 36.1 ± 1.1%
- log P (o/w) [2, 5]: −3.9 ± 0.1
- Release of 177Lu(III) from the complex [3]: not observed
- Release of 177Lu(III) from the complex [4]: not observed

Compound: [^177Lu]DOTAGA-ffk(Sub-KuE) [^177Lu-12]
- Internalization (1 h) in % of ([125I]I-BA)KuE ([1]; 177Lu compounds, c = 0.5 nM): 44.4 ± 1.8%
- log P (o/w) ([2]; n-octanol/PBS, listed for 11/12 but determined for the FFK analogue 11 only (footnote a)): −3.9 ± 0.1

Compound: [^natGa]DOTAGA-FFK(Sub-KuE) [^natGa-11]
- IC50 (PSMA): 12.1 ± 3.9 nM

Compound: [^natGa]DOTAGA-ffk(Sub-KuE) [^natGa-12]
- IC50 (PSMA): 15.9 ± 0.5 nM

Compound: [^natLu]DOTAGA-FFK(Sub-KuE) [^natLu-11]
- IC50 (PSMA): 15.1 ± 1.5 nM

Compound: [^natLu]DOTAGA-ffk(Sub-KuE) [^natLu-12]
- IC50 (PSMA): 13.1 ± 2.2 nM
